Columns and labels:
Assay in all cases: BTK, BMX, EGFR and ITK Inhibitory Assay
[1] = biological target: T1, Cytoplasmic tyrosine-protein kinase BMX (Homo sapiens, UniProt P51813)
T1 sequence (P51813 whole entry): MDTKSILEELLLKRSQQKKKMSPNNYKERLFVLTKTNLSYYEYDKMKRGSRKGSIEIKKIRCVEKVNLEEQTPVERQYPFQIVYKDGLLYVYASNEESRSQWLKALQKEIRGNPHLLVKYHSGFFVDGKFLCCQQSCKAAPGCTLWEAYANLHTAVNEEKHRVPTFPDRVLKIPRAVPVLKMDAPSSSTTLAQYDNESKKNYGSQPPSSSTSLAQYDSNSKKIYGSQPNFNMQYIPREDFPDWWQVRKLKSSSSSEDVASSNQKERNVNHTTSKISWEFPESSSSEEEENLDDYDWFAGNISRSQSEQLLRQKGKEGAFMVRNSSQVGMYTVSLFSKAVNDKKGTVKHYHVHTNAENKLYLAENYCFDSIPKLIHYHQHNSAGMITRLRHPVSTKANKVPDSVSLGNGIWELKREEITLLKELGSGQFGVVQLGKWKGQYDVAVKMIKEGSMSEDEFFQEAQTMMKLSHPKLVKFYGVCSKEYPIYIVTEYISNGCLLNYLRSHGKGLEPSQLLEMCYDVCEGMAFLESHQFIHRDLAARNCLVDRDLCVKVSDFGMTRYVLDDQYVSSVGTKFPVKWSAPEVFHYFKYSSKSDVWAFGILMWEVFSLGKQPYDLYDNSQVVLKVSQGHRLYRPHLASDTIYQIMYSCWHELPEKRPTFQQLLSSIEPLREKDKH
Description: (§1) Kinase inhibitory activities of compounds were evaluated using the Enzyme-linked immunosorbent assay (ELISA). The kinase enzyme of BTK, BMX, EGFR and ITK were purchased from Carna Bioscience (Kobe, Japan). A total of 10 ng/mL antiphosphotyrosine (PY713) antibody (abcam, Cambridge Science Park, UK) was precoated in 96-well ELISA plates. The kinase enzymes in each reaction well were set to BTK (101.25 ng/mL), BMX (90 ng/mL), EGFR (90 ng/mL) or ITK (120 ng/mL) and incubated with indicated compounds in 1× reaction buffer (50 mmol/L HEPES pH 7.4, 20 mmol/L MgCl2, 0.1 mmol/L MnCl2, 1 mmol/L DTT) containing 20 μmol/L (the final concentration of substrate in ITK reaction was 30 μmol/L) substrate (NH2-ETVYSEVRK-biotin) at 25° C. for 1 h. Then, a total of 3 μmol/L ATP was added and the reaction was continued for 2 hrs. The products of reaction were transferred into 96-well ELISA plates containing antibody and incubated at 25° C. for 30 min. After incubation, the wells were washed with PBS and then incubated with horseradish peroxidase […]-conjugated streptavidin. The wells were visualized using 3,3′,5,5′-tetramethylbenzidine (TMB), and chromogenic reaction was ended with 2 mol/L H2SO4, the absorbance was read with a multimode plate reader (PerkinElmer, USA) at 450 nm. IC50 values and curve fits were obtained using Prism (GraphPad Software).

[2] = biological target: Epidermal growth factor receptor (Homo sapiens, UniProt P00533)
Description: as §1

[3] = biological target: Tyrosine-protein kinase BTK (Homo sapiens, UniProt Q06187)
Description: as §1

[4] = biological target: T2, Tyrosine-protein kinase ITK/TSK (Homo sapiens, UniProt Q08881)
T2 sequence (Q08881 whole entry): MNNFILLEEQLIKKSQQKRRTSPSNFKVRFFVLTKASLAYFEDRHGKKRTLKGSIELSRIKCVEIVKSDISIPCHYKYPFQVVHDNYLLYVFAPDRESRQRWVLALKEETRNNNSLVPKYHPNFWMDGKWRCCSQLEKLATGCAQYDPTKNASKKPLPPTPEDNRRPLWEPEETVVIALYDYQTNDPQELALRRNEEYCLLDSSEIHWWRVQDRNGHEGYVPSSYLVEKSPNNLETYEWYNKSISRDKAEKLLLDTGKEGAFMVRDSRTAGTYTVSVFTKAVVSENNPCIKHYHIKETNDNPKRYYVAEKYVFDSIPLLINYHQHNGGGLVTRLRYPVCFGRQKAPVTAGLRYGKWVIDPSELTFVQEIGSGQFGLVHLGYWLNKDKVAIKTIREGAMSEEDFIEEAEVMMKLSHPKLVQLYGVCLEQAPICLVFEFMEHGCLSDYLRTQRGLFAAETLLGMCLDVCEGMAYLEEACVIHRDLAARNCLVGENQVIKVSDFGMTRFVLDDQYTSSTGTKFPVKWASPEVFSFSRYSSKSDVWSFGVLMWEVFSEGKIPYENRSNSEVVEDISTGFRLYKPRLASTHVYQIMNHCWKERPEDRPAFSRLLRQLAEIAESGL
Description: as §1

Sequence of Tyrosine-protein kinase BTK (Q06187 whole entry): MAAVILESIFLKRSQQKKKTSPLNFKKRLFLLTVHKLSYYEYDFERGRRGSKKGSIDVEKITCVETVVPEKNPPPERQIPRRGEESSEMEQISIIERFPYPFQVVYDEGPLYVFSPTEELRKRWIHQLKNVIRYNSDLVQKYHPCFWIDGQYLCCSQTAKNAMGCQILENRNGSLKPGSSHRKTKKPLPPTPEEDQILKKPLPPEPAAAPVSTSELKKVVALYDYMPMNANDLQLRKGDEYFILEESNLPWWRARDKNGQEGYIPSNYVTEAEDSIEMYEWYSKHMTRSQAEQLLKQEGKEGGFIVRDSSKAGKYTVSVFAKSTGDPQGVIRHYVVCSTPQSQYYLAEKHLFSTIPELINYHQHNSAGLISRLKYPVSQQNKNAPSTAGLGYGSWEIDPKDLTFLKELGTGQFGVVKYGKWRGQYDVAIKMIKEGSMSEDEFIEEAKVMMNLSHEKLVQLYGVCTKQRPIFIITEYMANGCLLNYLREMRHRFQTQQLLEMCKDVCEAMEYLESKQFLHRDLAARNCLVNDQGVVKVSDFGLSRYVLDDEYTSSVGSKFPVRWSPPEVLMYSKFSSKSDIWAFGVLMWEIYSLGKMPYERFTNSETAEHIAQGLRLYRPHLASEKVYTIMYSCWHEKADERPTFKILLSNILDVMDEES
Sequence of Epidermal growth factor receptor (P00533 whole entry): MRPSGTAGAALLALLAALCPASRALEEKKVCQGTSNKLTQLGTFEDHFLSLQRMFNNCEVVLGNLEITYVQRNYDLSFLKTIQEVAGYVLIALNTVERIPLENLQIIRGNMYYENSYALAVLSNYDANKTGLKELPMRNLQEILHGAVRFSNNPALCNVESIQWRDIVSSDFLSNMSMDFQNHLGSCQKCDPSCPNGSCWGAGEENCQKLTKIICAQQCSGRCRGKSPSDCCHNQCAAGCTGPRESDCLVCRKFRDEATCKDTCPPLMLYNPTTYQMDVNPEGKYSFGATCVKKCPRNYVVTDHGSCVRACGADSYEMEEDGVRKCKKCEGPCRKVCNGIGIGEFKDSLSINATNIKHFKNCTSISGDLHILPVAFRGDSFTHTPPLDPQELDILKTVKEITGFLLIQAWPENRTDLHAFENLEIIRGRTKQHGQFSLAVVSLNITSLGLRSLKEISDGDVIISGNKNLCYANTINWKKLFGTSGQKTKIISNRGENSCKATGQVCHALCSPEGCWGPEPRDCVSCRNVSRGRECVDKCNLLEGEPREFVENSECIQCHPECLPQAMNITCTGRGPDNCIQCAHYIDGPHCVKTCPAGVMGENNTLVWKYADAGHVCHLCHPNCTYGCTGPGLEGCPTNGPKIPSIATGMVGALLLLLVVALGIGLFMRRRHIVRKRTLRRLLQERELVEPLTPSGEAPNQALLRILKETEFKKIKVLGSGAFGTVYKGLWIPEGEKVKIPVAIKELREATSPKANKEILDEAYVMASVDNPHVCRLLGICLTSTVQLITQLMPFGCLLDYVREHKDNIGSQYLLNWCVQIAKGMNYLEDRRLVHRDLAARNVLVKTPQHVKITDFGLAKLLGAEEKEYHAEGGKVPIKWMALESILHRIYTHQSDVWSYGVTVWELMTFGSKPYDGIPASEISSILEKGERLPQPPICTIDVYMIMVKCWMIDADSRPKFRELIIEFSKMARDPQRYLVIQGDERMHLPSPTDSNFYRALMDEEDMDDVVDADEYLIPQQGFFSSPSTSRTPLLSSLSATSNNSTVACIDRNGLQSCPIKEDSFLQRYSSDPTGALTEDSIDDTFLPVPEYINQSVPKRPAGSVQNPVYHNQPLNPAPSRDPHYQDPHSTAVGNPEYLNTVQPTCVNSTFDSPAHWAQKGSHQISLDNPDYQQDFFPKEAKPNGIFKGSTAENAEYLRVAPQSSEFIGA

Row | IC50 [1] [nM] | IC50 [2] [nM] | IC50 [3] [nM] | IC50 [4] [nM] | SMILES
1 | 70.3 | 3240 | 8 | 8650 | NC(=O)c1c(-c2ccc(Oc3ccccc3)cc2)nc2n1NCCC2C1CN(C(=O)/C=C/C(F)(F)F)C1 (stereo not given) [US12552798, Example 20]
2 |  |  | 230 |  | CC#CC(=O)N1CC(C2CCNn3c2nc(-c2ccc(Oc4ccccc4)cc2)c3C(N)=O)C1 (stereo not given) [US12552798, Example 19]
